Measured values: ChEMBL document CHEMBL3259618, “Synthesis, molecular structure, DNA-binding, cytotoxicity, apoptosis and antioxidant activity of compounds containing aryloxazole” (Eur J Med Chem, 2014)
Activity calls are given as the source filed them. The calls are words filed in the database; no cut-off is given here.

Assays:
[1] = Antioxidant activity assessed as suppression ratio of hydroxyl radical formation at 3 uM after 30 mins by absorbance analysis; type: functional
[2] = Antioxidant activity assessed as suppression ratio of hydroxyl radical formation at 2 uM after 30 mins by absorbance analysis; type: functional
[3] = tested on: Escherichia coli; assay: Induction of Escherichia coli supercoiled pBR322 DNA cleavage assessed as decrease in intact supercoiled form measured after UV irradiation by agarose gel electrophoresis analysis
[4] = species on record: Bos taurus; assay: Intrinsic binding affinity to calf thymus DNA at 231 nm after 5 mins by electronic absorption analysis
[5] = Antioxidant activity assessed as suppression of hydroxyl radical formation after 30 mins by absorbance analysis; type: functional
[6] = tested on: Calf thymus DNA; assay: Binding affinity to calf thymus DNA assessed as luminescence intensity at compound to DNA ratio of 1:2 by job plot analysis; type: nucleic-acid assay; settings: Bos taurus
[7] = Antitumor activity against human MG63 cells assessed as growth inhibition after 48 hrs by MTT assay; type: functional, cell-based; settings: MG-63, 48 h
[8] = Antitumor activity against human Bel7402 cells assessed as growth inhibition after 48 hrs by MTT assay; type: functional, cell-based; settings: Bel-7402, 48 h
[9] = Antioxidant activity assessed as suppression ratio of hydroxyl radical formation at 2.5 uM after 30 mins by absorbance analysis; type: functional
[10] = Antioxidant activity assessed as suppression ratio of hydroxyl radical formation at 1 uM after 30 mins by absorbance analysis; type: functional
[11] = tested on: A549; assay: Antitumor activity against human A549 cells assessed as growth inhibition after 48 hrs by MTT assay; type: functional, cell-based; settings: A549, 48 h
[12] = tested on: Calf thymus DNA; assay: Binding affinity to calf thymus DNA assessed as hypochromicity at 231 nm at 40 uM after 5 mins by electronic absorption analysis; type: nucleic-acid assay; settings: Bos taurus
[13] = Antitumor activity against human SKBR3 cells assessed as growth inhibition after 48 hrs by MTT assay; type: functional, cell-based; settings: SK-BR-3, 48 h
[14] = tested on: Calf thymus DNA; assay: Binding affinity to calf thymus DNA assessed as decrease in compound emission intensity at 356 nm at 20 uM by luminescence spectrometer analysis; type: nucleic-acid assay; settings: Bos taurus
[15] = tested on: Calf thymus DNA; assay: Binding affinity to calf thymus DNA assessed as intercalation by measuring viscosity by viscometer analysis; type: nucleic-acid assay; settings: Bos taurus
[16] = tested on: Escherichia coli; assay: Induction of Escherichia coli supercoiled pBR322 DNA cleavage assessed as increase in open circular form measured after UV irradiation by agarose gel electrophoresis analysis
[17] = Antioxidant activity assessed as suppression ratio of hydroxyl radical formation at 1.5 uM after 30 mins by absorbance analysis; type: functional
[18] = Antioxidant activity assessed as suppression ratio of hydroxyl radical formation at 0.5 uM after 30 mins by absorbance analysis; type: functional
[19] = Antioxidant activity assessed as suppression ratio of hydroxyl radical formation at 3.5 uM after 30 mins by absorbance analysis; type: functional
[20] = tested on: Calf thymus DNA; assay: Binding affinity to calf thymus DNA assessed as luminescence intensity at compound to DNA ratio of 4:1 by job plot analysis; type: nucleic-acid assay; settings: Bos taurus
[21] = tested on: Calf thymus DNA; assay: Binding affinity to calf thymus DNA assessed as hypochromicity at 233 nm at 40 uM after 5 mins by electronic absorption analysis; type: nucleic-acid assay; settings: Bos taurus
[22] = species on record: Bos taurus; assay: Intrinsic binding affinity to calf thymus DNA at 233 nm after 5 mins by electronic absorption analysis
[23] = tested on: A549; assay: Induction of apoptosis in human A549 cells after 24 hrs by flow cytometry; type: functional, cell-based
[24] = tested on: A549; assay: Induction of cell cycle arrest in human A549 cells assessed as accumulation at S phase of cell cycle at 25 uM after 24 hrs by propidium iodide staining based flow cytometry (reference value: 9.8%); type: functional
[25] = tested on: A549; assay: Induction of apoptosis in human A549 cells assessed as necrotic cells at 50 uM after 24 hrs by flow cytometry (reference value: 0.04%); type: functional
[26] = tested on: A549; assay: Induction of apoptosis in human A549 cells assessed as necrotic cells at 25 uM after 24 hrs by flow cytometry (reference value: 0.04%); type: functional
[27] = tested on: Calf thymus DNA; assay: Binding affinity to calf thymus DNA assessed as increase in compound emission intensity at 446 nm at 20 uM by luminescence spectrometer analysis; type: nucleic-acid assay; settings: Bos taurus
[28] = tested on: A549; assay: Induction of apoptosis in human A549 cells assessed as viable cells at 50 uM after 24 hrs by flow cytometry (reference value: 92.28%); type: functional; settings: A549, 24 h, read-out: Activity
[29] = tested on: A549; assay: Induction of apoptosis in human A549 cells assessed as apoptotic cells at 50 uM after 24 hrs by flow cytometry (reference value: 0%); type: functional
[30] = tested on: A549; assay: Induction of apoptosis in human A549 cells assessed as viable cells at 25 uM after 24 hrs by flow cytometry (reference value: 92.28%); type: functional; settings: A549, 24 h, read-out: Activity
[31] = tested on: A549; assay: Induction of cell cycle arrest in human A549 cells assessed as accumulation at G0/G1 phase of cell cycle at 25 uM after 24 hrs by propidium iodide staining based flow cytometry (reference value: 73.79%); type: functional
[32] = tested on: A549; assay: Induction of apoptosis in human A549 cells assessed as apoptotic cells at 25 uM after 24 hrs by flow cytometry (reference value: 0%); type: functional
[33] = tested on: A549; assay: Induction of cell cycle arrest in human A549 cells assessed as accumulation at G2/M phase of cell cycle at 25 uM after 24 hrs by propidium iodide staining based flow cytometry (reference value: 14.73%); type: functional
[34] = tested on: Calf thymus DNA; assay: Binding affinity to calf thymus DNA assessed as decrease in compound emission intensity at 705 nm at 20 uM by luminescence spectrometer analysis; type: nucleic-acid assay; settings: Bos taurus
[35] = tested on: Calf thymus DNA; assay: Binding affinity to calf thymus DNA assessed as luminescence intensity at compound to DNA ratio of 1:1 by job plot analysis; type: nucleic-acid assay; settings: Bos taurus

SMILES | inhibition [1] | inhibition [2] | Activity [3] | Kb [4] | inhibition [5] | IC50 [7] | IC50 [8] | inhibition [9] | inhibition [10] | IC50 [11] | Activity [12] | IC50 [13] | Activity [15] | Activity [16] | inhibition [17] | inhibition [18] | inhibition [19] | also measured
OCc1nc2cc(-c3c(O)ccc4ccccc34)c3ccccc3c2o1 | 87.9% | 23.9% | Active | 5.31 ×10³ /M | Dose-dependent effect | > 100 µM | > 100 µM | 26.9% | 9.24% | > 100 µM | 33.4% | > 100 µM | Active | Active | 12.3% | 4.04% | 88.2% | Flu intensity [6]: 0.32 a.u.; inhibition [14]: 79.6%
OCc1nc2cc(-c3c(O)ccc4cc(Br)ccc34)c3cc(Br)ccc3c2o1 | 80.9% | 35.9% | Active |  | Dose-dependent effect | > 100 µM | 56.4 µM | 52.8% | 23.5% | 59.8 µM |  | > 100 µM | Active | Active | 28.3% | 15.2% | 86.7% | Flu intensity [20]: 0.8 a.u.; Activity [21]: 34.6%; Kb [22]: 4.44 ×10³ /M; Activity [23]: Dose-dependent effect; Activity [24]: 11.16%; Activity [25]: 3.18%; Activity [26]: 2.87%; Activity [27]: 5.76%; viability at 50 µM [28]: 80%; Activity [29]: 4.09%; viability at 25 µM [30]: 83.5%; Activity [31]: 71.9%; Activity [32]: 3.57%; Activity [33]: 15.5%
CC(=O)OCc1nc2cc(-c3c(OC(C)=O)ccc4ccccc34)c3ccccc3c2o1 | 86.4% | 75.7% | Active | 2.64 ×10³ /M | Dose-dependent effect | > 100 µM | > 100 µM | 81.2% | 32.5% | > 100 µM | 29% | > 100 µM | Active | Active | 50.4% | 18.9% | 89% | inhibition [34]: 60.4%; Flu intensity [35]: 0.54 a.u.
